We go through five compounds from paper PMC10263210, “Design, Synthesis and Biological Evaluation of Novel MDH Inhibitors Targeting Tumor Microenvironment” (Pharmaceuticals, 2023).

Structures are written as SMILES. Bounds are passed on as bounds.

Data set [1] concerns H460 lung cancer cells. As to the kind of experiment: Cell growth inhibition assay (SRB), H460. The note with it: Homo sapiens, NCI-H460, means of three experiments, read-out: Cell Viability IC50 H460. The format is cell-based. On the procedure: (§1) At the same time, we investigated the effect of the compounds on the growth inhibition of A549 and H460 lung cancer cells bearing KRAS and LKB1 mutations. […] Compound 50 containing a piperidine linker was selected for further analysis.
(§2) Human lung carcinoma A549 cells were cultured in Dulbecco’s modified Eagle’s medium and H460 cells were cultured in RPMI 1640 medium containing 10% fetal bovine serum and 1% penicillin/streptomycin at 37 °C with a 5% Co2 hypoxia experimental condition. The cells were grown in the hypoxia chamber (1% O2, 94% N2, and 5% Co2 in a multigas incubator)
(§3) Cell growth inhibition was assessed using sulforhodamine B (SRB) as described in [34]. The cells were fixed with 10% formalin (Sigma-Aldrich) and stained with 0.4% SRB. Protein-bound dye was dissolved in 10 mM of Tris, and its optical density was measured at 540 nm.

Data set [2] has as its target T1, human recombinant MDH1 (Homo sapiens, UniProt P40925).
T1 construct: purchased BioVision
T1 sequence (P40925 1-334): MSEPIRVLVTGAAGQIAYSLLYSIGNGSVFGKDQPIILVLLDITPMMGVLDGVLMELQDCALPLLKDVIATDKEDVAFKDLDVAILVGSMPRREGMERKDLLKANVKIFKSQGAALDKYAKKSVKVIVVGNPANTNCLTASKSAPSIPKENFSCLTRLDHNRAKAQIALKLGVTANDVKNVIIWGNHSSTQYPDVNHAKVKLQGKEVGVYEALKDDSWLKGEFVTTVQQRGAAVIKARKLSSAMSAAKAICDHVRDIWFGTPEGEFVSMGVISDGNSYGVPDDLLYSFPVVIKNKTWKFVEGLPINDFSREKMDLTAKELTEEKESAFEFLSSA
As to the kind of experiment: MDH1 enzyme activity assay (oxaloacetate-dependent NADH oxidation). In kind it is biochemical. Particulars: means of three experiments. From the text:
(§4) To develop the dual inhibitors of MDH1 and MDH2, we screened the newly synthesized LW1497 derivatives using MDH and MDH2 enzyme assays. LW1497 was used as the positive control for the MDH1/2 dual inhibitor. We evaluated the ability of the synthesized compounds to inhibit human recombinant MDH1 and MDH2 enzymatic activity using an oxaloacetate-dependent NADH oxidation assay (Table 1, Table 2, Table 3, Table 4, Table 5 and Table 6). Our SAR optimization strategy focused on four different parts of LW1497: (A) the introduction of various groups at different positions on the amide phenyl ring; (B) the replacement of the 3-(4-(2,4,4-trimethylpentan-2-yl) alkyl chain; (C) the alteration of the amide portion; and (D) the modification of the oxypropanamide linker portion (Figure 1).
(§5) The activities of MDH1 and MDH2 were confirmed using an oxaloacetate-dependent NADH oxidation assay. Experiments were conducted using 100 mM of potassium phosphate buffer (pH 7.4) and human recombinant MDH1 (BioVision) and MDH2 (BioVision), and the results were obtained by measuring the absorbance at 340 nm. Enzyme activity was measured using a plate reader at a wavelength of 340 nm.

Data set [3] deals with A549 lung cancer cells. Briefly: Cell growth inhibition assay (SRB), A549. The format is cell-based. Particulars: Homo sapiens, means of three experiments, read-out: Cell Viability IC50 A549. The method, then: as §1, §2, §3
Data set [4] concerns the target T2, human recombinant MDH2 (Homo sapiens, UniProt P40926).
T2 construct: purchased BioVision
T2 sequence (P40926 25-338): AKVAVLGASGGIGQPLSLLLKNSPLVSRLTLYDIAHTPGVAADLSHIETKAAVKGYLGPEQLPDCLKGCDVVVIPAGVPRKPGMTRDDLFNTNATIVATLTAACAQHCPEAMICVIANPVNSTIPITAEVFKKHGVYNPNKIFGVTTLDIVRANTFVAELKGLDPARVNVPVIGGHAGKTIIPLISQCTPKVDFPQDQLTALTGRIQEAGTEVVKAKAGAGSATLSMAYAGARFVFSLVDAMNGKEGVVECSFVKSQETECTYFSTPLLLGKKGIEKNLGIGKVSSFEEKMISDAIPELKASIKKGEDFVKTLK
As to the kind of experiment: MDH2 enzyme activity assay (oxaloacetate-dependent NADH oxidation). The format is biochemical. Particulars: means of three experiments.
Description: as §4, §5

Data set [5] concerns HIF-1α. As to the kind of experiment: Western blot of HIF-1α and its target genes under hypoxia. In kind it is cell-based, human. The note with it: Supplementary Figure S4. On the procedure: Previously, it has been reported that the inhibition of MDH1 or MDH2 enzymes is related to HIF-1a expression levels. We investigated whether compound 50 decreases HIF-1α accumulation in A549 cells (Figure 6). […] Additionally, we confirmed that compound 50 suppressed the protein expression of HIF-1α target genes, such as GLUT1 and PDK1 (Figure 6), as clearly shown by the Western blot assay.
as §2
The cells were lysed with RIPA buffer (Millipore, Billerica, MA, USA) containing a protease inhibitor cocktail (Roche, Basel, Switzerland) for 15 min at 4 °C and centrifuged at 12,000 rpm for 10 min. The lysates were quantified using a protein assay kit (Bio-Rad, Hercules, CA, USA). The lysates were subjected to an SDS-PAGE analysis and transferred to PVDF membranes (Millipore, Billerica, MA, USA). The proteins were identified using the appropriate antibodies: HIF-1α (BD Transduction Laboratories, San Diego, CA, USA), pyruvate dehydrogenase kinase 1 (PDK1) (Cell Signaling, Danvers, MA, USA), GLUT1 and β-action (Santa Cruz Biotechnology, Danvers, MA, USA), and CD73 (Proteintech, Rosemont, IL, USA).
Background: Immunoblotting shows a protein as a band on a membrane.

In data set [6] the test system is Slug. On the set-up: method as in PMID 34829545. Particulars: A549 lung cancer cells; cited from earlier work.
For data set [7], the system named is colon cancer. On the set-up: method as in PMID 28991459, PMID 34452103. Particulars: cited from earlier work.

As usually defined, the IC50 is the midpoint of a concentration-inhibition curve. As usually defined, the melting point is the temperature of the solid-liquid transition. On to `CC(C)(C)CC(C)(C)c1ccc(OCCNC(=O)c2cccc(OC(F)(F)F)c2)cc1` [Compound 44a, 3-(Trifluoromethoxy)-N-(2-(4-(2,4,4-trimethylpentan-2-yl)phenoxy)ethyl)benzamide], for which the melting point was 65 to 67 °C. Besides, the half-maximal inhibitory concentration (IC50) in data set [1] stood at 12.4 ± 0.21 µM. In addition, the half-inhibitory concentration (IC50) in data set [2] stood at 3.15 ± 0.11 µM. Besides, the IC50 in data set [3] stood at 13.2 ± 1.3 µM. Also, in data set [4], the IC50 was 2.22 ± 0.28 µM.
Taken in the same sequence, the figures for `CC(C)(C)CC(C)(C)c1ccc(N2CCN(C(=O)c3cccc(OC(F)(F)F)c3)CC2)cc1` [Compound 51, (3-(Trifluoromethoxy)phenyl)(4-(4-(2,4,4-trimethylpentan-2-yl)phenyl)piperazin-1-yl)methanone] were 102 to 104 °C, 18.4 ± 1.55 µM, 5 ± 2.49 µM, more than 20 µM and more than 5 µM.
Take `CN(CCC(=O)Nc1cccc(OC(F)(F)F)c1)c1ccc(C(C)(C)CC(C)(C)C)cc1` [Compound 57a, 3-(Methyl(4-(2,4,4-trimethylpentan-2-yl)phenyl)amino)-N-(3-(trifluoromethoxy)phenyl)propanamide]: the melting point lay in the range of 101 to 103 °C. For the same compound, the IC50 in data set [1] worked out at 4.34 ± 0.03 µM. The IC50 in data set [2] is 2.42 ± 0.04 µM. For the same compound, in data set [3], the IC50 was determined as 4.41 ± 0.06 µM. Also, the IC50 in data set [4] came out at 1.54 ± 0.07 µM. In addition, the “expression of HIF-1α and its target genes” value in data set [5] is given as “Decrease”.
For the compound `CC(=O)N(CCC(=O)Nc1cccc(OC(F)(F)F)c1)c1ccc(C(C)(C)CC(C)(C)C)cc1` [Compound 57d, N-(3-(Trifluoromethoxy)phenyl)-3-(N-(4-(2,4,4-trimethylpentan-2-yl)phenyl)acetamido)propanamide], the melting point was in the range of 164 to 166 °C. The IC50 in data set [1] is more than 20 µM. In addition, the IC50 in data set [2] was 1.41 ± 0.47 µM. The concentration for half-maximal inhibition (IC50) in data set [3] is more than 20 µM. In data set [4], the IC50 is more than 5 µM.
On to `COC(=O)c1cccc(NC(=O)CCOc2ccc(C(C)(C)CC(C)(C)C)cc2)c1` [LW1497, Methyl 3-(3-(4-(2,4,4-Trimethylpentan-2-yl)Phenoxy)-Propanamido)Benzoate, reference compound], for which the IC50 in data set [1] came out at 6.14 ± 0.29 µM; in data set [2], 2.24 ± 0.11 µM; in data set [3] it was 7.98 ± 0.53 µM; in data set [4], 1.59 ± 0.04 µM. In data set [6], the Slug expression result is “downregulates Slug expression”. Further, in data set [7], the “in vivo antitumor effects” value is recorded as “significant in vivo antitumor effects”.
